The values below come from ChEMBL document CHEMBL6092186, “Semisynthetic Ecdysteroid Cinnamate Esters and tert-Butyl Oxime Ether Derivatives with Trypanocidal Activity” (J Nat Prod, 2024).

Data set [1] has as its system Trypanosoma. Put plainly: Anti-trypanosomal activity against Trypanosoma. The format is functional, organism-based.
Data set [2] concerns Trypanosoma cruzi. Nature of the data set: Anti-trypanosomal activity against Trypanosoma cruzi epimastigotes assessed as inhibition of parasitic proliferation at 5 uM incubated for 72 hrs by XTT assay relative to control. Type of data set: functional. (In general: Tetrazolium assays rely on reduction of a dye to a coloured formazan, in cell work by metabolically active cells.)

Data set [3] relates to CHO. Put plainly: Cytotoxicity against CHO cells at 5 uM incubated for 72 hrs by MTT assay. To be noted: chinese hamster. Type of data set: toxicity, cell-based, Cricetulus griseus.
The subject of data set [4] is Trypanosoma cruzi. Nature of the data set: Trypanocidal activity against Trypanosoma cruzi epimastigotes incubated for 24 hrs by Neubauer chamber method. The format is functional, organism-based.

Structures are written as SMILES. The source made the active and inactive calls. No cut-off for these calls is given here.

In general, IC50 refers to the concentration that gives 50% inhibition. Take `COc1ccc(/C=C/C(=O)O)cc1` [4-METHOXYCINNAMIC ACID]: in data set [1], the IC50 was > 600 µM.
In general, inhibition refers to the change of the read-out against control, counted positive when it falls. `CC(C)(O)CC[C@@H](O)[C@](C)(O)[C@H]1CC=C2C3=C/C(=N/OC(C)(C)C)[C@@H]4C[C@@H](O)[C@@H](OC(=O)/C=C/c5ccccc5)C[C@]4(C)[C@H]3CC[C@@]21C`: in data set [2], the inhibition at 5 µM was ≥ 30%.
On to `CC(C)(O)CC[C@H]1OC(C)(C)O[C@]1(C)[C@H]1CC=C2C3=C/C(=N/OC(C)(C)C)[C@@H]4C[C@H]5OC(C)(C)O[C@H]5C[C@]4(C)[C@H]3CC[C@@]21C`, for which the Activity result in data set [3] was “Non-toxic”.
`CC(C)(O)CC[C@@H](OC(=O)/C=C/c1ccccc1)[C@](C)(O)[C@H]1CC=C2C3=C/C(=N\OC(C)(C)C)[C@@H]4C[C@@H](O)[C@@H](OC(=O)/C=C/c5ccccc5)C[C@]4(C)[C@H]3CC[C@@]21C`: the inhibition at 5 µM in data set [2] is ≥ 30%.
For the compound `CC(C)(O)CC[C@@H](OC(=O)/C=C/c1ccccc1)[C@](C)(O)[C@H]1CC[C@@]2(O)C3=CC(=O)[C@@H]4C[C@@H](OC(=O)/C=C/c5ccccc5)[C@@H](O)C[C@]4(C)[C@H]3CC[C@]12C`, the Activity entry in data set [3] is on record as “Non-toxic”.
As for `CC(C)(O)CC[C@@H](O)[C@](C)(O)[C@H]1CC=C2C3=C/C(=N\OC(C)(C)C)[C@@H]4C[C@@H](O)[C@@H](OC(=O)/C=C/c5ccccc5)C[C@]4(C)[C@H]3CC[C@@]21C`, the inhibition at 5 µM in data set [2] is ≥ 30%.
Turning to `CCCCCOC(=O)/C=C/c1ccc(O)cc1`, the IC50 in data set [4] is ~5 µM.
`CC(C)(O)CC[C@@H](O)[C@](C)(O)[C@H]1CC=C2C3=C/C(=N/OC(C)(C)C)[C@@H]4C[C@@H](O)[C@@H](O)C[C@]4(C)[C@H]3CC[C@@]21C`: the inhibition entry in data set [2] is “inactive”.
As for `CC(C)(O)CC[C@H]1OC(C)(C)O[C@]1(C)[C@H]1CC[C@@]2(O)C3=C/C(=N\OC(C)(C)C)[C@@H]4C[C@H]5OC(C)(C)O[C@H]5C[C@]4(C)[C@H]3CC[C@]12C`, the Activity result in data set [3] is given as “Non-toxic”.
For the compound `CC(C)(O)CC[C@@H](OC(=O)/C=C/c1ccccc1)[C@](C)(O)[C@H]1CC=C2C3=C/C(=N\OC(C)(C)C)[C@@H]4C[C@@H](OC(=O)/C=C/c5ccccc5)[C@@H](OC(=O)/C=C/c5ccccc5)C[C@]4(C)[C@H]3CC[C@@]21C`, the inhibition at 5 µM in data set [2] was ≥ 30%.
For `CC(C)(O)CC[C@@H](O)[C@](C)(O)[C@H]1CC=C2C3=C/C(=N\OC(C)(C)C)[C@@H]4C[C@@H](O)[C@@H](O)C[C@]4(C)[C@H]3CC[C@@]21C`, the inhibition entry in data set [2] is “inactive”.
`COc1ccc(/C=C/C(=O)O)c(OC)c1`: the IC50 in data set [1] is > 600 µM.
Consider `CC(C)(O)CC[C@@H](OC(=O)/C=C/c1ccccc1)[C@](C)(O)[C@H]1CC[C@@]2(O)C3=CC(=O)[C@@H]4C[C@@H](O)[C@@H](OC(=O)/C=C/c5ccccc5)C[C@]4(C)[C@H]3CC[C@]12C`, for which, in data set [3], the Activity result is reported as “Non-toxic”.
For `COc1cc(/C=C/C(=O)O)cc(OC)c1OC` [SINAPIC ACID METHYL ETHER], the 50% inhibitory concentration (IC50) in data set [1] is > 600 µM.
